Assay results taken from ChEMBL document CHEMBL3885861, “Open TG-GATES”.

Species on record: Rattus norvegicus
Assay: Open TG-GATES - Regimen: Single
Assay type: toxicity, organism-based, Sprague-Dawley
Set-up: regimen Single, gender Male, age 6 weeks
Details: in vivo, po, 80 mg/kg, route gavage, dose level Low; for Bas / Eos / Fbg / Hb / Ht / Lym / MCHC / MCV / Mono / PT / Plat / RBC / WBC: tissue Blood; for KIDNEY_L / KIDNEY_R / KIDNEY_TOTAL: tissue Kidney; for LIVER: tissue Liver

## COc1ccc([C@@H]2Sc3ccccc3N(CCN(C)C)C(=O)[C@@H]2OC(C)=O)cc1 [DILTIAZEM]
6 h, tissue Plasma
  TG: 33.4 mg/dL
  TP: 5.3 g/dL
  gamma-GTP: 1 IU/L
9 h
  TERMINAL_BW: 181.8 g
  Bas: 0%
  Eos: 0.8%
  Fbg: 300.8 mg/dL
  Hb: 12.9 g/dL
  Ht: 40.2%
  Lym: 79.4%
  MCHC: 32.1%
  MCV: 66.7 fL
  Mono: 3%
  PT: 15.2 s
  Plat: 116.7 x10_4/uL
  RBC: 603.2 x10_4/ul
  WBC: 69.7 x10_2/uL
  KIDNEY_L: 0.9 g
  KIDNEY_R: 0.9 g
  KIDNEY_TOTAL: 1.7 g
  LIVER: 7.3 g
9 h, tissue Plasma
  ALP: 1382 IU/L
  ALT: 44 IU/L
  AST: 74.8 IU/L
  CRE: 0.1 mg/dL
  Ca: 10.7 mg/dL
  Cl: 105.8 meq/L
  DBIL: 0.016 mg/dL
  GLC: 176.8 mg/dL
  K: 4.1 meq/L
  LDH: 59.6 IU/L
  Na: 142 meq/L
  PL: 129.4 mg/dL
  RALB: 2.5 g/dL
  TBIL: 0.032 mg/dL
  TC: 69 mg/dL
  TG: 55.8 mg/dL
  TP: 5.1 g/dL
  gamma-GTP: 1 IU/L
24 h
  TERMINAL_BW: 195.1 g
  Bas: 0%
  Eos: 1%
  Fbg: 257 mg/dL
  Hb: 13.3 g/dL
  Ht: 40.6%
  Lym: 75%
  MCHC: 32.8%
  MCV: 67 fL
  Mono: 3.2%
  PT: 14.5 s
  Plat: 121.8 x10_4/uL
  RBC: 606 x10_4/ul
  WBC: 83.3 x10_2/uL
  KIDNEY_L: 0.9 g
  KIDNEY_R: 0.9 g
  KIDNEY_TOTAL: 1.7 g
  LIVER: 9.3 g
24 h, tissue Plasma
  ALP: 1732.2 IU/L
  ALT: 49 IU/L
  AST: 77.4 IU/L
  CRE: 0.2 mg/dL
  Ca: 11.2 mg/dL
  Cl: 106.8 meq/L
  DBIL: 0.016 mg/dL
  GLC: 187.4 mg/dL
  K: 4.3 meq/L
  LDH: 82 IU/L
  Na: 144.2 meq/L
  PL: 146.4 mg/dL
  RALB: 2.6 g/dL
  TBIL: 0.032 mg/dL
